Tests used:
LOLRI = test: A. Herbicidal pre-emergence action on harmful plants (Tables A); format: in vivo, Lolium rigidum; conditions: visual grading after ca. 3 weeks vs untreated controls, 100% = plants have died off, 0% = as control plants
Method in brief: (§1)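 Greenhouse pre-emergence test: compound applied to the soil surface at 1280 g/ha or below, and herbicidal effect rated visually at ca. 3 weeks on a 0–100% scale against untreated plants.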

MATIN = test: as above; format: in vivo, Matricaria inodora; conditions: visual grading after ca. 3 weeks vs untreated controls, 100% = plants have died off, 0% = as control plants
Method in brief: as §1

SETVI = test: as above; format: in vivo, Setaria viridis; conditions: visual grading after ca. 3 weeks vs untreated controls, 100% = plants have died off, 0% = as control plants
Method in brief: as §1

POAAN = test: B. Herbicidal post-emergence action on harmful plants (Tables B); format: in vivo, Poa annua
Method in brief: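 Activity was scored visually as % damage (100% = dead, 0% = like untreated) about 3 weeks after treatment. Plants at the one-leaf stage, 2-3 weeks old, were sprayed with WP/EC formulations plus 0.5% additive (600 L/ha water, up to 1280 g/ha). Plants were grown in sandy loam in a greenhouse.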

ECHCG = test: C. Herbicidal pre-emergence action, weed and crop plants (Tables C); format: in vivo, Echinochloa crus-galli
Description: Seeds of mono- and dicotyledonous weed plants and crop plants were sown, in plastic or organic planting pots, in sandy loam and covered with soil. The compounds according to the invention, formulated in the form of wettable powders (WP) or as emulsifiable concentrates (EC), were applied to the surface of the covering soil as aqueous suspension or emulsion, with the addition of 0.5% of an additive, at an application rate of 6001 of water/ha (converted). Following treatment, the pots were placed in a greenhouse and kept under optimum growth conditions for the test plants. The visual grading of the damage to the test plants was carried out after ca. 3 weeks in comparison to untreated controls (herbicidal effect in percent (%): 100% effect = plants have died off, 0% effect = as control plants). Tables C1 to C12 below show the effects of selected compounds of the general formula (I) according to table 1 on various harmful plants and an application rate corresponding to 320 g/ha or below obtained by the experimental procedure mentioned above. Table C1: pre-emergence activity at 320g/ha against KCHSC in %

BRSNW [1] = test: D. Pre-emergence effects on crop plants (Tables D); format: in vivo, Brassica napus; conditions: crop plant
Method in brief: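 Pre-emergence soil-surface treatment at 320 g/ha or lower, using wettable-powder or emulsifiable-concentrate formulations in water plus 0.5% additive, over freshly sown seeds in covered sandy loam. Damage was rated visually as percent versus untreated pots (100% = dead plants) after about 3 weeks of greenhouse growth.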

GLXMA = test: F. Post-emergence effects on crop plants (Tables F); format: in vivo, Glycine max; conditions: crop plant
Method in brief: (§2)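 Plants were grown in sandy loam in a greenhouse and sprayed post-emergence at the single-leaf stage, 2–3 weeks after sowing. Visual damage was scored after ca. 3 weeks against untreated controls (0% = as control, 100% = dead).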

BRSNW [2] = test: as above; format: in vivo, Brassica napus; conditions: crop plant
Method in brief: as §2

ALOMY = test: A. Herbicidal pre-emergence action on harmful plants (Tables A); format: in vivo, Alopecurus myosuroides
Method in brief: as §1

DIGSA = test: as above; format: in vivo, Digitaria sanguinalis
Method in brief: as §1

[3] = application rate 1280 g/ha, Table B7a
[4] = application rate 320 g/ha, Table C6a
[5] = application rate 320 g/ha, Table A9b
[6] = application rate 1280 g/ha, Table A9a
[7] = application rate 320 g/ha, Table A12b
[8] = application rate 1280 g/ha, Table A12a
[9] = application rate 80 g/ha, Table C6b

Structure (SMILES)	pre-emergence activity against LOLRI (LOLRI; application rate 320 g/ha) [%]	pre-emergence activity against LOLRI (LOLRI; application rate 1280 g/ha) [%]	pre-emergence activity against MATIN (MATIN; application rate 1280 g/ha) [%]	pre-emergence activity against SETVI (SETVI; application rate 320 g/ha) [%]	pre-emergence activity against SETVI (SETVI; application rate 1280 g/ha) [%]	post-emergence activity against POAAN (POAAN; [3]) [%]	pre-emergence activity against ECHCG (ECHCG; [4]) [%]	pre-emergence activity against BRSNW in % (BRSNW [1]; application rate 80 g/ha) [%]	pre-emergence activity against BRSNW in % (BRSNW [1]; application rate 320 g/ha) [%]	post-emergence activity against GLXMA in % (GLXMA; application rate 80 g/ha) [%]	pre-emergence activity against ALOMY (ALOMY; [5]) [%]	pre-emergence activity against ALOMY (ALOMY; [6]) [%]	pre-emergence activity against DIGSA (DIGSA; [7]) [%]	pre-emergence activity against DIGSA (DIGSA; [8]) [%]	post-emergence activity against BRSNW in % (BRSNW [2]; application rate 320 g/ha) [%]	post-emergence activity against GLXMA in % (GLXMA; application rate 320 g/ha) [%]	pre-emergence activity against ECHCG (ECHCG; [9]) [%]	other results
COCc1nn(C)cc1C(=O)N1CCCC1Cc1ccccc1F (racemic) [Example I-002]	90	100	90	90	90	90	90	0	0	20	–	–	–	–	–	–	–	pre-emergence activity against LOLRI (LOLRI; application rate 80 g/ha): 90%; pre-emergence activity against MATIN (MATIN; application rate 320 g/ha): 90%; post-emergence activity against BRSNW in % (BRSNW [2]; application rate 80 g/ha): 10%
Cn1cc(C(=O)N2CCCC2Cc2ccccc2F)c(COc2ccccc2)n1 (racemic) [Example I-006]	–	90	90	–	–	90	–	0	10	0	90	100	90	100	10	–	–	–
Cn1cc(C(=O)N2CCCC2Cc2ccc(F)cc2F)c(COc2ccccc2)n1 (racemic) [Example I-008]	–	–	90	–	90	90	90	0	10	–	100	100	90	100	10	0	–	–
COCc1nn2c(c1C(=O)N1CCCC1Cc1ccccc1F)CCC2 (racemic) [Example I-022]	100	100	90	90	90	90	90	0	0	–	90	90	90	90	0	0	–	–
C=C(c1ccccc1F)C1CCCN1C(=O)c1cn(C)nc1COC (racemic) [Example I-023]	100	100	90	90	90	90	90	0	0	–	–	90	90	90	0	–	–	pre-emergence activity against MATIN (MATIN; application rate 320 g/ha): 90%
COCc1nn(C(=O)OC(C)(C)C)cc1C(=O)N1CCCC1Cc1ccccc1F (racemic) [Example I-040]	90	100	90	90	90	–	90	0	0	0	–	90	90	100	0	–	80	–
COCc1c(C(=O)N2CCCC2Cc2ccccc2Cl)cnn1C (racemic) [Example I-170]	90	90	90	90	90	90	90	0	0	10	–	90	–	–	0	–	90	post-emergence activity against POAAN (POAAN; application rate 320 g/ha, Table B7b): 90%
COCc1nn(C)cc1C(=O)N1CCCC1C(O)c1ccccc1F (single isomer, unassigned) [Example I-053]	90	90	90	90	90	–	100	10	–	–	–	–	90	90	20	20	90	–

Source: patent EP4417602A1, “SUBSTITUTED PYRAZOLE CARBOXAMIDES, SALTS THEREOF AND THEIR USE AS HERBICIDALLY ACTIVE SUBSTANCES” (Bayer AG, priority 2023, dated 2024)
